Biological target: T1, human USP18 residues 52-372 (recombinant) (Homo sapiens, UniProt Q9UMW8)
T1 sequence (Q9UMW8 52-372): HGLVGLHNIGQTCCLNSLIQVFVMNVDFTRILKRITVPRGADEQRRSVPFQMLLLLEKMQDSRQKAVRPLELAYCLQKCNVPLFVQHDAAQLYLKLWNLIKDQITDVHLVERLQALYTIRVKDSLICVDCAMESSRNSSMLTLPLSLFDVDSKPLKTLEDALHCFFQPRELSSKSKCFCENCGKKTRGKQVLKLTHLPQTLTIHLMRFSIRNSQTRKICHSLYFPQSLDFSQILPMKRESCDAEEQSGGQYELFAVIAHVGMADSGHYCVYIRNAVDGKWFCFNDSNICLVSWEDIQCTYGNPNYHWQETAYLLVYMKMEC
Test: fluorogenic ISG15ct-rhodamine cleavage, dose-response
Format: biochemical

- IC50: 14.1 ± 1.6 µM
SMILES: Cc1ccc2[nH]c3c(c2c1)CN(C(=O)c1cc(-c2ccccc2)[nH]n1)CC3 [compound 8655, ZHAWOC8655]

Source: publication doi:10.1101/2025.03.30.646166v1 (biorxiv, 2025)
